From PubChem BioAssay AID1918948 (Molecular Pharmacology Branch, DTP, NCI, 2023)
Values joined by “and” are separate entries in the source; they are usually repeats but may differ in a detail not shown here. Identical values can stand only once.

Test system: K-562 leukemia growth, % test/control
Assay: Anticancer human tumor K-562 cell line growth inhibition;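 note: spheroids exposed to compounds for 7 days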;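 for viability, T/C: 100% = DMSO vehicle wells and lower values mean fewer viable cells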
Conditions: spheroids with HUVEC and MSC; for viability, T/C: stronger effect = lower value; active = viability on the fitted dose curve at most 10% of control; inactive = the rest
How it was run: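 Drug combinations with the LSD1 inhibitor iadademstat tested on tumor cells co-cultured as spheroids with endothelial cells and mesenchymal stem cells. Concentrations descended in half-log increments from clinical Cmax or 10 microM.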

[1] = curve of first compound, second compound 0.1 µM
[2] = curve of first compound, second compound 0.316 µM
[3] = curve of first compound, second compound 1 µM
[4] = curve of first compound, second compound 3.16 µM
[5] = curve of first compound, second compound 10 µM
[6] = second compound 0.1 µM, first compound 0.0316 µM
[7] = second compound 0.1 µM, first compound 0.1 µM
[8] = second compound 0.316 µM, first compound 0.0316 µM
[9] = second compound 0.316 µM, first compound 0.1 µM
[10] = second compound 1 µM, first compound 0.0316 µM
[11] = second compound 1 µM, first compound 0.1 µM
[12] = second compound 3.16 µM, first compound 0.0316 µM
[13] = second compound 3.16 µM, first compound 0.1 µM
[14] = second compound 10 µM, first compound 0.0316 µM
[15] = second compound 10 µM, first compound 0.1 µM

Cn1ncnc1C1c2n[nH]c(=O)c3cc(F)cc(c23)NC1c1ccc(F)cc1 (configuration not stated) + NC1CCC(NC2CC2c2ccccc2)CC1
inactive: viability, T/C (second compound 0.1 µM, first compound 0.000316 µM) 102% | viability, T/C (second compound 0.1 µM, first compound 0.001 µM) 97.6% | viability, T/C (second compound 0.1 µM, first compound 0.00316 µM) 101% | viability, T/C (second compound 0.1 µM, first compound 0.01 µM) 101% | viability, T/C [6] 101% | viability, T/C [7] 97% | viability, T/C (second compound 0.316 µM, first compound 0.000316 µM) 101% | viability, T/C (second compound 0.316 µM, first compound 0.001 µM) 102% | viability, T/C (second compound 0.316 µM, first compound 0.00316 µM) 102% | viability, T/C (second compound 0.316 µM, first compound 0.01 µM) 99% | viability, T/C [8] 101% | viability, T/C [9] 98.9% | viability, T/C (second compound 1 µM, first compound 0.000316 µM) 108% | viability, T/C (second compound 1 µM, first compound 0.001 µM) 102% | viability, T/C (second compound 1 µM, first compound 0.00316 µM) 99.7% | viability, T/C (second compound 1 µM, first compound 0.01 µM) 103% | viability, T/C [10] 102% | viability, T/C [11] 101% | viability, T/C (second compound 3.16 µM, first compound 0.000316 µM) 100% | viability, T/C (second compound 3.16 µM, first compound 0.001 µM) 103% | viability, T/C (second compound 3.16 µM, first compound 0.00316 µM) 104% | viability, T/C (second compound 3.16 µM, first compound 0.01 µM) 104% | viability, T/C [12] 104% | viability, T/C [13] 101% | viability, T/C (second compound 10 µM, first compound 0.000316 µM) 99.3% | viability, T/C (second compound 10 µM, first compound 0.001 µM) 99.6% | viability, T/C (second compound 10 µM, first compound 0.00316 µM) 101% | viability, T/C (second compound 10 µM, first compound 0.01 µM) 101% | viability, T/C [14] 98.5% | viability, T/C [15] 96.1%
> 100 nM: IC50 [1] | IC50 [2] | IC50 [3] | IC50 [4] | IC50 [5]

Nc1ccccc1NC(=O)c1ccc(CNC(=O)OCc2cccnc2)cc1 + NC1CCC(NC2CC2c2ccccc2)CC1
225 nM: IC50 [4]
274 nM: IC50 [1]
active: viability, T/C (second compound 0.1 µM, first compound 0.949 µM) 3.36% | viability, T/C (second compound 0.1 µM, first compound 3 µM) 0.18% | viability, T/C (second compound 0.316 µM, first compound 0.949 µM) 3.47% | viability, T/C (second compound 0.316 µM, first compound 3 µM) 0.16% | viability, T/C (second compound 1 µM, first compound 0.949 µM) 3.81% | viability, T/C (second compound 1 µM, first compound 3 µM) 0.17% | viability, T/C (second compound 3.16 µM, first compound 0.949 µM) 4.43% | viability, T/C (second compound 3.16 µM, first compound 3 µM) 1.18% | viability, T/C (second compound 10 µM, first compound 0.949 µM) 2.97% | viability, T/C (second compound 10 µM, first compound 3 µM) 0.24%
325 nM: IC50 [2]
280 nM: IC50 [3]
inactive: viability, T/C (second compound 0.1 µM, first compound 0.00949 µM) 106% | viability, T/C (second compound 0.1 µM, first compound 0.03 µM) 106% | viability, T/C (second compound 0.1 µM, first compound 0.0949 µM) 103% | viability, T/C (second compound 0.1 µM, first compound 0.3 µM) 45.5% | viability, T/C (second compound 0.316 µM, first compound 0.00949 µM) 107% | viability, T/C (second compound 0.316 µM, first compound 0.03 µM) 105% | viability, T/C (second compound 0.316 µM, first compound 0.0949 µM) 103% | viability, T/C (second compound 0.316 µM, first compound 0.3 µM) 53.5% | viability, T/C (second compound 1 µM, first compound 0.00949 µM) 106% | viability, T/C (second compound 1 µM, first compound 0.03 µM) 107% | viability, T/C (second compound 1 µM, first compound 0.0949 µM) 100% | viability, T/C (second compound 1 µM, first compound 0.3 µM) 46.9% | viability, T/C (second compound 3.16 µM, first compound 0.00949 µM) 105% | viability, T/C (second compound 3.16 µM, first compound 0.03 µM) 107% | viability, T/C (second compound 3.16 µM, first compound 0.0949 µM) 93.2% | viability, T/C (second compound 3.16 µM, first compound 0.3 µM) 35.6% | viability, T/C (second compound 10 µM, first compound 0.00949 µM) 92.5% | viability, T/C (second compound 10 µM, first compound 0.03 µM) 83.8% | viability, T/C (second compound 10 µM, first compound 0.0949 µM) 39.9% | viability, T/C (second compound 10 µM, first compound 0.3 µM) 14.1%
75.5 nM: IC50 [5]

COc1ccc([C@@H](O)c2cc(-c3ncnc4cc(N5CCOCC5)ccc34)c(F)cc2Cl)nn1 + NC1CCC(NC2CC2c2ccccc2)CC1
9230 nM: IC50 [1]
9900 nM: IC50 [2]
inactive: viability, T/C [6] 100% | viability, T/C [7] 100% | viability, T/C (second compound 0.1 µM, first compound 0.316 µM) 101% | viability, T/C (second compound 0.1 µM, first compound 1 µM) 103% | viability, T/C (second compound 0.1 µM, first compound 3.16 µM) 96.6% | viability, T/C (second compound 0.1 µM, first compound 10 µM) 46.5% | viability, T/C [8] 101% | viability, T/C [9] 101% | viability, T/C (second compound 0.316 µM, first compound 0.316 µM) 104% | viability, T/C (second compound 0.316 µM, first compound 1 µM) 106% | viability, T/C (second compound 0.316 µM, first compound 3.16 µM) 98.2% | viability, T/C (second compound 0.316 µM, first compound 10 µM) 49.5% | viability, T/C [10] 105% | viability, T/C [11] 103% | viability, T/C (second compound 1 µM, first compound 0.316 µM) 105% | viability, T/C (second compound 1 µM, first compound 1 µM) 105% | viability, T/C (second compound 1 µM, first compound 3.16 µM) 98.2% | viability, T/C (second compound 1 µM, first compound 10 µM) 51.8% | viability, T/C [12] 101% | viability, T/C [13] 102% | viability, T/C (second compound 3.16 µM, first compound 0.316 µM) 103% | viability, T/C (second compound 3.16 µM, first compound 1 µM) 104% | viability, T/C (second compound 3.16 µM, first compound 3.16 µM) 97.4% | viability, T/C (second compound 3.16 µM, first compound 10 µM) 49.2% | viability, T/C [14] 99.5% | viability, T/C [15] 101% | viability, T/C (second compound 10 µM, first compound 0.316 µM) 101% | viability, T/C (second compound 10 µM, first compound 1 µM) 98.2% | viability, T/C (second compound 10 µM, first compound 3.16 µM) 91.8% | viability, T/C (second compound 10 µM, first compound 10 µM) 41%
8180 nM: IC50 [5]
> 10000 nM: IC50 [3]
9830 nM: IC50 [4]

CC1COCCN1c1cc(C2(S(C)(=N)=O)CC2)nc(-c2ccnc3[nH]ccc23)n1 (configuration not stated)
5.34% and 10.9%: viability, T/C (compound 3.16 µM)
inactive: viability, T/C (compound 0.0316 µM) 91.2% and 107% | viability, T/C (compound 0.1 µM) 89.3% and 102% | viability, T/C (compound 0.316 µM) 74.7% and 91.8% | viability, T/C (compound 1 µM) 29.1% and 74.6%
589 nM and 1550 nM: IC50 (curve of compound)
active: viability, T/C (compound 10 µM) 2.87% and 2.76%
